# Structures can show the parent of a compound that is named as a salt.
# Legend:
# [1] = system: ^14 C--succinate uptake by BBMV from rat small intestine; test: 14C-succinate uptake by intestinal BBMV; type: biochemical; conditions: 1 mM; for 14C-succinate uptake 120 min: control 78 ± 3; for 14C-succinate uptake 15 sec: control 118 ± 7
# [2] = Hydrolysis of phosphono-compounds (release of Pi) in the BBMV assay; conditions: 1 mM; hydrolysis to release more than 5% Pi
# Source text: Compounds studied in the present experiments which inhibited BBM transport of Pi without hydrolysis to release more than 5% Pi are listed in Table 1.
# [3] = system: L-[^3 H]--proline uptake by BBMV from rat small intestine; test: L-[3H]-proline uptake by intestinal BBMV; type: biochemical; conditions: 1 mM; for L-[3H]-proline uptake 15 sec: control 27 ± 0.2; for L-[3H]-proline uptake 120 min: control 53 ± 2
# [4] = system: Na-Pi cotransporter; test: Na+-gradient-dependent 32Pi uptake by intestinal BBMV; type: biochemical, rat; conditions: 1 mM; equilibrium; rat small intestine BBMV; control 151 ± 4
# Description: (§1) The intestinal BBMV fractions were prepared from mucosa of rat small intestine of rats using the modified magnesium- precipitation method as described by B. Steiger and H. Murer [Eur. J. Biochem., 135, 95 (1983)]. This intestinal BBMV fraction is analogous to the BBMV fraction isolated from kidney. The uptake of ^32 Pi in the presence of Na^+ -gradient [Nao^+ >Nai^+ ] was determined by a rapid filtration technique similar to that employed in the transport measurements on renal BBMV. The Na^+ -gradient [Nao^+ >Nai^+ ]-dependent Pi uptake in the initial phase was measured after 30 sec. The ^32 Pi uptake at equilibrium was measured at 180 min.
# [5] = biological target: T1, Na-Pi cotransporter (Rattus norvegicus, UniProt Q9JJ09); test: as above; type: biochemical; conditions: 1 mM; for effect on initial 32P uptake by intestinal BBMV (in words): FIG. 4, Table 7; for 32Pi-phosphate uptake 30 sec: initial phase, rat small intestine BBMV, control 75 ± 3
# T1 construct: The intestinal BBMV fractions were prepared from mucosa of rat small intestine; from tissue; host or cells: rat small intestine mucosa, brush border membrane vesicles
# T1 sequence (Q9JJ09 1-695): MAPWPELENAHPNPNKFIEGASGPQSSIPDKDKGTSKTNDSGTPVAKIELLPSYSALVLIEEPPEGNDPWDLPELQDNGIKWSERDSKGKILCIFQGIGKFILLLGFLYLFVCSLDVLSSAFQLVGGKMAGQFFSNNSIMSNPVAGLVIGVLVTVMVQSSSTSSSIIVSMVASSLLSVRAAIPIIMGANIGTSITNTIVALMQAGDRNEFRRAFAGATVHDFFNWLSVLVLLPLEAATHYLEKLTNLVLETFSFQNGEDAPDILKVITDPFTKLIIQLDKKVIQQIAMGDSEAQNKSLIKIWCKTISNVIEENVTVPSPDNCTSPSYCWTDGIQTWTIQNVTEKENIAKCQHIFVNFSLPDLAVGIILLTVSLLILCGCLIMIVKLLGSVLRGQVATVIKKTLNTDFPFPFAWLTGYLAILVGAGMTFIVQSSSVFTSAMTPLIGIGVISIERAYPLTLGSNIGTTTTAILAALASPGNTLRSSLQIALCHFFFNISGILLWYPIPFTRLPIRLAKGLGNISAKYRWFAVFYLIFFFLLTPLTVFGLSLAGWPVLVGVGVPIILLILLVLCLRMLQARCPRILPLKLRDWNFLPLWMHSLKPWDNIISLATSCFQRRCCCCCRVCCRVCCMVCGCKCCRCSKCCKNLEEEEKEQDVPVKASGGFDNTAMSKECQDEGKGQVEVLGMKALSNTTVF
# Description: as §1
# [6] = system: D-[^3 H]--glucose uptake by BBMV from rat small intestine; test: D-[3H]-glucose uptake by intestinal BBMV; type: biochemical; conditions: 1 mM; for D-[3H]-glucose uptake 120 min: control 57 ± 2; for D-[3H]-glucose uptake 15 sec: control 67 ± 0.5
# Description: The intestinal BBMV fractions were prepared from mucosa of rat small intestine of rats using the modified magnesium- precipitation method as described by B. Steiger and H. Murer [Eur. J. Biochem., 135, 95 (1983)]. This intestinal BBMV fraction is analogous to the BBMV fraction isolated from kidney. […]
smiles,measurement,setting,value
"O=C(O)CP(=O)(O)O [PAA, phosphonoacetic acid]",14C-succinate uptake 120 min,[1],89 ± 3 pmol/mg protein
same,14C-succinate uptake 15 sec,[1],127 ± 2 pmol/mg protein
same,Note: hydrolysis,[2],no
same,L-[3H]-proline uptake 15 sec,[3],27 ± 1.0 pmoles/mg protein
same,L-[3H]-proline uptake 120 min,[3],55 ± 1.0 pmoles/mg protein
same,32Pi-phosphate uptake 180 min,[4],163 ± 6 pmoles/mg protein
same,effect on initial 32P uptake by intestinal BBMV (in words),[5],markedly inhibited
same,32Pi-phosphate uptake 30 sec,[5],51 ± 0.3 pmoles/mg protein
same,D-[3H]-glucose uptake 120 min,[6],61 ± 3 pmoles/mg protein
same,D-[3H]-glucose uptake 15 sec,[6],68 ± 3 pmoles/mg protein
"O=C(O)P(=O)(O)O [TPFA, Phosphonoformic acid, trisodium salt hexahydrate]",14C-succinate uptake 120 min,[1],81 ± 1 pmol/mg protein
same,14C-succinate uptake 15 sec,[1],125 ± 3 pmol/mg protein
same,Note: hydrolysis,[2],no
same,L-[3H]-proline uptake 15 sec,[3],27 ± 0.4 pmoles/mg protein
same,L-[3H]-proline uptake 120 min,[3],54 ± 0.1 pmoles/mg protein
same,32Pi-phosphate uptake 180 min,[4],146 ± 5 pmoles/mg protein
same,effect on initial 32P uptake by intestinal BBMV (in words),[5],markedly inhibited
same,32Pi-phosphate uptake 30 sec,[5],44 ± 2 pmoles/mg protein
same,D-[3H]-glucose uptake 120 min,[6],57 ± 2 pmoles/mg protein
same,D-[3H]-glucose uptake 15 sec,[6],69 ± 2 pmoles/mg protein

# Reference: patent publication US4806532A, “Inhibition of epithelial phosphate transport” (Mayo Foundation for Medical Education and Research, priority 1985, dated 1989)
